# Laboratory results taken from the supplement of paper PMC6045584.
# Legend:
# Experiment in all cases: area under dose-response curve of surviving fraction (unscaled, Aref=0) (surviving fraction x log10(nM)); higher = more resistant
# Conditions in all cases: exposure time: 5 days; dose range 0.5-1000 nM
# [1] = compound: CNC(=O)c1cc(Oc2ccc(NC(=O)Nc3ccc(Cl)c(C(F)(F)F)c3)cc2)ccn1 [SORAFENIB]
# Method in brief: (§1)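 Surviving fractions were fitted by 3-parameter logistic regression in the drc R package to give dose-response survival curves. They came from tumour cell lines treated for five days with eight inhibitor concentrations from 0.5 to 1000 nM and read by CellTiter-Glo luminescence against DMSO-only wells. The area under the curve is the unscaled activity area. It was calculated over log10 dose with Aref = 0.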
# [2] = compound: Cc1nc(Nc2ncc(C(=O)Nc3c(C)cccc3Cl)s2)cc(N2CCN(CCO)CC2)n1 [DASATINIB]
# Method in brief: as §1
# [3] = compound: NS(=O)(=O)OC[C@@H]1C[C@@H](n2ccc3c(N[C@H]4CCc5ccccc54)ncnc32)C[C@@H]1O [MLN-4924]
# Method in brief: as §1
# [4] = compound: C[C@]12CC[C@H](O)CC1=CC[C@@H]1[C@@H]2CC[C@]2(C)C(c3cccnc3)=CC[C@@H]12 [ABIRATERONE]
# Method in brief: as §1
# [5] = compound: CCn1c(C(=O)N(C2CC2)C2CC2)cc2c3c(ncn3C)c(Nc3cc(C)n(C)n3)nc21
# Method in brief: as §1
# [6] = compound: Oc1nc(-c2ccc(C(F)(F)F)cc2)nc2c1CSCC2 [XAV-939]
# Method in brief: as §1
# [7] = compound: COc1cc2ncnc(Nc3ccc(F)c(Cl)c3)c2cc1NC(=O)/C=C/CN1CCCCC1
# Method in brief: as §1
# [8] = compound: CNCc1ccc(-c2[nH]c3cc(F)cc4c3c2CCNC4=O)cc1
# Method in brief: as §1
# [9] = compound: O=C(c1cc(Cc2n[nH]c(=O)c3ccccc23)ccc1F)N1CCN(C(=O)C2CC2)CC1 [OLAPARIB]
# Method in brief: as §1
# [10] = compound: C[C@@H](Oc1cc(-c2cnn(C3CCNCC3)c2)cnc1N)c1c(Cl)ccc(F)c1Cl
# Method in brief: as §1
# [11] = compound: Cn1nnc2c(C(N)=O)ncn2c1=O [TEMOZOLOMIDE]
# Method in brief: as §1
# [12] = compound: COc1cc2c(Oc3ccc(NC(=O)C4(C(=O)Nc5ccc(F)cc5)CC4)cc3F)ccnc2cc1OCCCN1CCOCC1 [FORETINIB]
# Method in brief: as §1
# [13] = compound: C[C@@H](Oc1cc(-c2cnn(C3CCNCC3)c2)cnc1N)c1c(Cl)ccc(F)c1Cl [CRIZOTINIB]
# Method in brief: as §1
test system,measurement,setting,value
HS57T LUNG,area under dose-response curve,[1],3.44
same,area under dose-response curve,[2],1.87
same,area under dose-response curve,[3],2.38
same,area under dose-response curve,[4],3.71
same,area under dose-response curve,[5],3.21
same,area under dose-response curve,[6],3.24
same,area under dose-response curve,[7],3.17
same,area under dose-response curve,[8],3.17
same,area under dose-response curve,[9],3.54
same,area under dose-response curve,[10],2.97
same,area under dose-response curve,[11],3.27
same,area under dose-response curve,[12],3.04
same,area under dose-response curve,[13],3.12
